Among the data in US9193884B2, “Ink composition” (Hewlett-Packard Development Company, L.P., priority 2011, dated 2015) are pKa, Limiting radius and solubility values, retold here.

The conditions of data set [1]: cited from earlier work.
A short description of data set [2]: limiting area and limiting radius of fatty acids. Format: physicochemical.
From the text: Fatty acids with one or two cis double bonds have this limiting area; while those with three or more cis double bonds have larger limiting areas. The saturated and trans fatty acids have limiting areas much smaller than this.
Data set [3] can be described thus: solubility of lithium fatty acid salts. The data set is classed as physicochemical.

Molecules are shown by their SMILES.

As usually defined, the pKa is the negative logarithm of the acid dissociation constant. Turning to `CCCCCCCC/C=C/CCCCCCCC(=O)O` [Elaidic, elaidic acid], the pKa in data set [1] is 9.95. The Limiting radius in data set [2] worked out at 3.24 Å. Turning to `CCCCC/C=C\C/C=C\CCCCCCCC(=O)O` [Linoleic, linoleic acid], in data set [2], the Limiting radius worked out at 3.91 Å. For `CCCCCCCC/C=C\CCCCCCCC(=O)O` [Oleic, oleic acid], the pKa in data set [1] was 9.85. The same molecule gave a Limiting radius in data set [2] of 3.61 Å. As for `CCCCCCCCCCCCCCCCCC(=O)O` [Stearic, stearic acid], the Limiting radius in data set [2] is reported as 2.52 Å. For `CCCCCCCCCCCC(=O)[O-].[Li+]` [dodecanoate, lithium dodecanoate], the solubility entry in data set [3] is listed as “higher solubility than that of oleic acid”.
